Converted amounts (≈) assume the structure as drawn. Read-outs that look alike come from different tables or passages of the source.
How the values were obtained:
Type in all cases: cell-based
[1] = tested on: Streptococcus pyogenes 1079; experiment: MIC, microtiter broth dilution (NCCLS M100-S14), S. pyogenes 1079 (ermB)
Procedure: (§1) The assay described herein includes a panel of bacterial strains assembled to include a variety of target pathogenic species, including representatives of macrolide resistance mechanisms that have been characterized. In many cases, both the macrolide-susceptible parent strain and the macrolide-resistant strain derived from it are available to provide a more accurate assessment of the compound's ability to circumvent the resistance mechanism. The assay is performed in microtiter trays and interpreted according to Performance Standards for Antimicrobial Susceptibility Testing; 14th Informational Supplement (M100-S14), published by The National Committee for Clinical Laboratory Standards (NCCLS) guidelines; the MIC is used to compare strains. Compounds are initially dissolved in DMSO as 40 mg/ml stock solutions.

[2] = tested on: Streptococcus pneumoniae 1016; experiment: MIC, microtiter broth dilution (NCCLS M100-S14), S. pneumoniae 1016 (susceptible)
Procedure: as §1

[3] = tested on: Haemophilus influenzae 1218; experiment: MIC, microtiter broth dilution (NCCLS M100-S14), H. influenzae 1218 (susceptible)
Procedure: as §1

[4] = tested on: Streptococcus pneumoniae 1175; details: microtiter broth dilution
Procedure: as §1

[5] = tested on: Streptococcus pneumoniae 1095; details: microtiter broth dilution
Procedure: as §1

[6] = S. pneumoniae 1016 (susceptible)
[7] = H. influenzae 1218 (susceptible)

Structure (SMILES)	MIC S. pyogenes 1079 ([1]; Streptococcus pyogenes 1079) [µg/mL]	MIC S. pneumo. 1016 ([2]; Streptococcus pneumoniae 1016) [µg/mL]	MIC H. influenzae 1218 ([3]; Haemophilus influenzae 1218) [µg/mL]	MIC S. pneumo. 1175 ([4]; Streptococcus pneumoniae 1175) [µg/mL]	MIC S. pneumo. 1095 ([5]; Streptococcus pneumoniae 1095) [µg/mL]	MIC S. pyogenes 1079 ([1]; S. pyogenes 1079 (ermB)) [µg/mL]	MIC S. pneumo. 1016 [2, 6] [µg/mL]	MIC H. influenzae 1218 [3, 7] [µg/mL]	MIC S. pneumo. 1175 ([4]; S. pneumoniae 1175 (mefA)) [µg/mL]	MIC S. pneumo. 1095 ([5]; S. pneumoniae 1095 (ermB)) [µg/mL]
CC[C@H]1OC(=O)[C@H](C)C(=O)[C@H](C)[C@@H](O[C@@H]2O[C@H](C)C[C@H](N(C)C)[C@H]2O)[C@](C)(OC)C[C@@H](C)C(=O)[C@H](C)[C@H]2N(C3CN(Cc4ccnc5c(C#N)cccc45)C3)C(=O)O[C@]12C [Example 1.95, 3-descladinosyl-11,12-dideoxy-6-O-methyl-3-oxo-12,11-(oxycarbonyl-(1-(quinoline-8-carbonitrile-4-methyl)-azetidin-3-yl)-imino)-erythromycin A]	1 (≈ 1.2 µM)	<0.063	2 (≈ 2.4 µM)	<0.063	1 (≈ 1.2 µM)	–	–	–	–	–
CCC1OC(=O)C(C)C(=O)C(C)C(OC2OC(C)CC(N(C)C)C2O)C(C)(OC)CC(C)C(=O)C(C)C2N(C3CN(C(=O)c4ccc(-c5noc(C)n5)cc4)C3)C(=O)OC12C (stereo not shown) [Example 2.12]	>64.00	<0.06	32 (≈ 37.5 µM)	0.25 (≈ 0.293 µM)	2 (≈ 2.34 µM)	–	–	–	–	–
CCC1OC(=O)C(C)C(=O)C(C)C(OC2OC(C)CC(N(C)C)C2O)C(C)(OC)CC(C)C(=O)C(C)C2N(C3CN(C(=O)NCc4ccc5ncccc5c4)C3)C(=O)OC12C (stereo not shown) [Example 2.10, N-((quinolin-6-yl)inethyl) aminocarbonyl]	>64.00	<0.06	2 (≈ 2.35 µM)	0.25 (≈ 0.293 µM)	8 (≈ 9.39 µM)	–	–	–	–	–
CCC1OC(=O)C(C)C(=O)C(C)C(OC2OC(C)CC(N(C)C)C2O)C(C)(OC)CC(C)C(=O)C(C)C2N(CC3CN(Cc4c[nH]c5ncccc45)C3)C(=O)OC12C (stereo not shown) [Example 4.18, 3-descladinosyl-11,12-dideoxy-6-O-methyl-3-oxo-12,11-(oxycarbonyl-(1-((1H-pyrrolo[2,3-b]pyridin-3-yl)-methyl)-(azetidin-3-yl)-methyl)-imino)-erythromycin A]	8 (≈ 9.85 µM)	<0.06	0.25 (≈ 0.308 µM)	0.5 (≈ 0.616 µM)	0.12 (≈ 0.148 µM)	–	–	–	–	–
CCC1OC(=O)C(C)C(=O)C(C)C(OC2OC(C)CC(N(C)C)C2O)C(C)(OC)CC(C)C(=O)C(C)C2N(C3CN(Cc4ccc(OC)c5nccnc45)C3)C(=O)OC12C (stereo not shown) [Example 1.105]	8 (≈ 9.52 µM)	<0.063	1 (≈ 1.19 µM)	0.125 (≈ 0.149 µM)	<0.063	–	–	–	–	–
CCC1OC(=O)C(C)C(=O)C(C)C(OC2OC(C)CC(N(C)C)C2O)C(C)(OC)CC(C)C(=O)C(C)C2N(CC3CCN(Cc4cnc5ccccc5c4)CC3)C(=O)OC12C (stereo not shown) [15.03]	–	–	–	–	–	>64.00	<0.06	8 (≈ 9.4 µM)	0.25 (≈ 0.294 µM)	>64.00
CCC1OC(=O)C(C)(F)C(=O)C(C)C(OC2OC(C)CC(N(C)C)C2O)C(C)(OC)CC(C)C(=O)C(C)C2N(CC3CCCN3C(=O)c3ccc4cccnc4n3)C(=O)OC12C (stereo not shown) [10.30]	–	–	–	–	–	32 (≈ 36.8 µM)	<0.06	2 (≈ 2.3 µM)	0.12 (≈ 0.138 µM)	<0.06
CCC1OC(=O)C(C)C(=O)C(C)C(OC2OC(C)CC(N(C)C)C2O)C(C)(OC)CC(C)C(=O)C(C)C2N(CC3CN(C(=O)c4ccc5cccnc5n4)C3)C(=O)OC12C.O=CO (stereo not shown) [4.40]	>64.00	<0.06	4	0.5	8	–	–	–	–	–
CCC1OC(=O)C(C)C(=O)C(C)C(OC2OC(C)CC(N(C)C)C2O)C(C)(OC)CC(C)C(=O)C(C)C2N(C3CN(Cc4c(Br)cnc5cccnc45)C3)C(=O)OC12C (stereo not shown) [Example 1.106, 3-descladinosyl-11,12-dideoxy-6-O-methyl-3-oxo-12,11-(oxycarbonyl-(1-(3-bromo-1,5-naphthyridine-4-methyl)-azetidin-3-yl)-imino)-erythromycin A]	0.25 (≈ 0.281 µM)	<0.063	1 (≈ 1.12 µM)	<0.063	<0.063	–	–	–	–	–
CC[C@H]1OC(=O)[C@H](C)[C@@H](OC(=O)N2CCCC2)[C@H](C)[C@@H](O[C@@H]2O[C@H](C)C[C@H](N(C)C)[C@H]2O)[C@](C)(OC)C[C@@H](C)C(=O)[C@H](C)[C@H]2N(CC3CN(Cc4cccc5cccnc45)C3)C(=O)O[C@]12C [Example 5.08, 2-R^2: (quinolin-8-yl)methyl; R^#: pyrrolidin-1-yl]	16 (≈ 17.4 µM)	<0.06	2 (≈ 2.17 µM)	<0.06	0.25 (≈ 0.271 µM)	–	–	–	–	–
CCC1OC(=O)C(C)C(=O)C(C)C(OC2OC(C)CC(N(C)C)C2O)C(C)(OC)CC(C)C(=O)C(C)C2N(CC3CN(C(=O)c4cc(F)ccc4F)C3)C(=O)OC12C (stereo not shown) [4.02]	100 (≈ 122 µM)	0.01 (≈ 0.0122 µM)	3.12 (≈ 3.8 µM)	0.5 (≈ 0.608 µM)	0.5 (≈ 0.608 µM)	–	–	–	–	–
CCC1OC(=O)C(C)C(=O)C(C)C(OC2OC(C)CC(N(C)C)C2O)C(C)(OC)CC(C)C(=O)C(C)C2N(C3CN(S(=O)(=O)c4ccc(-c5nnn[nH]5)cc4)C3)C(=O)OC12C (stereo not shown) [Example 3.84, 4-(1H-tetrazol-5-yl)benzenesulfonyl]	>64.00	1 (≈ 1.14 µM)	32 (≈ 36.5 µM)	16 (≈ 18.3 µM)	>64.00	–	–	–	–	–
CC[C@H]1OC(=O)[C@H](C)C(=O)[C@H](C)[C@@H](O[C@@H]2O[C@H](C)C[C@H](N(C)C)[C@H]2O)[C@](C)(OC)C[C@@H](C)C(=O)[C@H](C)[C@H]2N(CC3(O)CN(Cc4ccc(-c5cncnc5)cc4)C3)C(=O)O[C@]12C [7.12]	–	–	–	–	–	>64.00	<0.06	2 (≈ 2.31 µM)	0.5 (≈ 0.577 µM)	>64.00
CCC1OC(=O)C(C)C(=O)C(C)C(OC2OC(C)CC(N(C)C)C2O)C(C)(OC)CC(C)C(=O)C(C)C2N(CC3CN(C(=O)c4ccnc5ccccc45)C3)C(=O)OC12C.O=CO (stereo not shown) [4.37]	>64.00	<0.06	0.5	<0.06	0.25	–	–	–	–	–
CCC1OC(=O)C(C)C(=O)C(C)C(OC2OC(C)CC(N(C)C)C2O)C(C)(OC)CC(C)C(=O)C(C)C2N(C3CN(S(=O)(=O)c4ccc5cn[nH]c5c4)C3)C(=O)OC12C (stereo not shown) [Example 3.85, 3-descladinosyl-11,12-dideoxy-6-O-methyl-3-oxo-12,11-(oxycarbonyl-(1-(1H-indazole-6-sulfonyl)-azetidin-3-yl)-imino)-erythromycin A]	1 (≈ 1.18 µM)	<0.06	0.25 (≈ 0.295 µM)	<0.06	<0.06	–	–	–	–	–
CCC1OC(=O)C(C)C(=O)C(C)C(OC2OC(C)CC(N(C)C)C2O)C(C)(OC)CC(C)C(=O)C(C)C2N(CC3CCCN3C(=O)c3cc4cnccc4nc3C)C(=O)OC12C (stereo not shown) [10.41]	–	–	–	–	–	>64.00	<0.06	2 (≈ 2.31 µM)	<0.06	<0.06
CCC1OC(=O)C(C)C(=O)C(C)C(OC2OC(C)CC(N(C)C)C2O)C(C)(OC)CC(C)C(=O)C(C)C2N(CC3CCCN3C(=O)c3ccc4cccnc4n3)C(=O)OC12C.O=CO (stereo not shown) [10.16]	–	–	–	–	–	>64.00	<0.06	0.25	0.25	<0.06
